Measured values reported in PMC4730192, “Ligand selectivity in tachykinin and natalisin neuropeptidergic systems of the honey bee parasitic mite Varroa destructor” (Scientific Reports, 2016).
No end group written: not given here.

Assays:
[1] = target: T1, V. destructor NTL receptor (VdNTL-R) (Varroa destructor, UniProt A0A141CIT8); assay: Aequorin calcium-mobilization reporter assay, VdNTL-R transiently expressed in CHO-K1 cells with Ga16; assay type: cell-based; conditions: for EC50: CHO-K1 cells, Ga16 + aequorin luminescence, 10-fold serial dilutions, logistic fitting of dose-response curves; for Agonistic activity, VdNTL-R 0.1μM: ligand 0.1 μM; for Agonistic activity, VdNTL-R 0.1μM / Agonistic activity, VdNTL-R 1μM: relative luminescence normalized by highest activity of endogenous ligand VdNTL1, 3 biological replications; for Agonistic activity, VdNTL-R 1μM: ligand 1 μM
T1 sequence (A0A141CIT8 1-461): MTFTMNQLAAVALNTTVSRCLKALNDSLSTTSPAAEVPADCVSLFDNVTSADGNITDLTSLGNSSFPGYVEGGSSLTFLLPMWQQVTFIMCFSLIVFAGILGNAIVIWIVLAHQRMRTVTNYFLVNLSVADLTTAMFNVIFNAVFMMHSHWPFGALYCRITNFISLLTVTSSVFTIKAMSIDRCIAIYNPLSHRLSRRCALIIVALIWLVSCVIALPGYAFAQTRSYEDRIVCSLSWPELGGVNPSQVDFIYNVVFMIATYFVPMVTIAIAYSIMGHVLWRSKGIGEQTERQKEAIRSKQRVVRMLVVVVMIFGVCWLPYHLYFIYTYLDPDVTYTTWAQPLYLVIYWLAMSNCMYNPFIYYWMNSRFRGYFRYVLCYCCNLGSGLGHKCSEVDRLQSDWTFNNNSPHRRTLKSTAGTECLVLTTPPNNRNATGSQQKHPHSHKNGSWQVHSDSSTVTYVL
Excerpt: (§1) In this system, ligand-mediated G-protein-coupled receptor (GPCR) activation initiates calcium mobilization that is indicated by the increased luminescence of aequorin.
(§2) The PCR amplicons of the full open reading frames (ORFs) of the three receptors were initially cloned into the pGEMT easy vector (Promega) and transferred to the expression vector pcDNA3.1(+) (Invitrogen) using the common restriction enzymes in the multi-cloning site (EcoRI for AmTRPR, NotI for both VdNTLR and VdTRPR). The sequences of the inserts were confirmed by Sanger sequencing prior to heterologous expression. High-quality plasmid DNA prepared using the plasmid MIDIprep kit (Qiagen) was used for transient transfection. The methods for transient expression of aequorin and G-alpha16 in Chinese hamster ovary (CHO-K1) cells and the procedures for the assays were previously described. Thirty hours after the transfection, the cells were collected and preincubated with the coelenterazine (Invitrogen) for the functional assay as previously described. Serial dilutions (10-fold, ranging from 0.001 to 1000 nM) of the 10 endogenous ligands were used for treatment of the cells. These ten natural ligands included two […] and three […] predicted from the respective putative precursors and also included five AmTRP peptides. The elevated luminescence caused by intracellular calcium mobilization was measured for a continuous 20 seconds at every 100-ms interval. Dose response curves and EC50s of each ligand for each receptor were obtained by logistic fitting in Origin 8.6 (OriginLab).
(§3) The test ligands were mainly the NTL peptides of T. castaneum, D. melanogaster, B. mori, and Anopheles gambiae and two TRPs, TcTRP4 and DmTRP6. Two doses of each ligand were tested for each receptor: 1 and 0.1 μM for VdNTL-R and VdTRP-R and 1 and 0.01 μM for AmTRP-R.

[2] = target: T2, V. destructor TRP receptor (VdTRP-R) (Varroa destructor, UniProt A0A141CIT9); assay: Aequorin calcium-mobilization reporter assay, VdTRP-R transiently expressed in CHO-K1 cells with Ga16; assay type: cell-based; conditions: for Agonistic activity, VdTRP-R 0.1μM: ligand 0.1 μM; for Agonistic activity, VdTRP-R 0.1μM / Agonistic activity, VdTRP-R 1μM: relative luminescence normalized by highest activity of endogenous ligand VdTRP3, 3 biological replications; for Agonistic activity, VdTRP-R 1μM: ligand 1 μM; for EC50: CHO-K1 cells, Ga16 + aequorin luminescence, 10-fold serial dilutions, logistic fitting of dose-response curves; for Receptor specificity among VdNTL-R, VdTRP-R and AmTRP-R (in words): expanded ligand test at two concentrations on the three receptors
T2 sequence (A0A141CIT9 1-437): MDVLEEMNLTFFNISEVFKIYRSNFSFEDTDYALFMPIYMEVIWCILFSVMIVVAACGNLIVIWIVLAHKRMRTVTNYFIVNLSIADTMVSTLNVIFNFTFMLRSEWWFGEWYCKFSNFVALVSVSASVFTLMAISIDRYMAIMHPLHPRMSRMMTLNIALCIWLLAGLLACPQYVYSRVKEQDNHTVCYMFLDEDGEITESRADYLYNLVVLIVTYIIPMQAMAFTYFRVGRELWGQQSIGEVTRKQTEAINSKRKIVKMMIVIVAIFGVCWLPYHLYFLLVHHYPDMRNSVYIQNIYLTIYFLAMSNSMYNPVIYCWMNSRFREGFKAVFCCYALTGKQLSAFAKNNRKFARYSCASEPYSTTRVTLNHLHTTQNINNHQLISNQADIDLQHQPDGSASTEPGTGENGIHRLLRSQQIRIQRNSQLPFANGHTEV
Excerpt: as §1, §2, §3

[3] = target: T3, A. mellifera TRP receptor (AmTRP-R) (Apis mellifera, UniProt A0ACM8RFV8); assay: Aequorin calcium-mobilization reporter assay, AmTRP-R transiently expressed in CHO-K1 cells with Ga16; assay type: cell-based; conditions: for EC50: CHO-K1 cells, Ga16 + aequorin luminescence, 10-fold serial dilutions, logistic fitting of dose-response curves; for Agonistic activity, AmTRP-R 0.01μM: ligand 0.01 μM; for Agonistic activity, AmTRP-R 0.01μM / Agonistic activity, AmTRP-R 1μM: relative luminescence normalized by highest activity of endogenous ligand AmTRP1, 3 biological replications; for Agonistic activity, AmTRP-R 1μM: ligand 1 μM; for Agonistic activity on AmTRP-R (in words): dose-response or expanded ligand test, 1 and 0.01 μM
T3 sequence (A0ACM8RFV8 1-421): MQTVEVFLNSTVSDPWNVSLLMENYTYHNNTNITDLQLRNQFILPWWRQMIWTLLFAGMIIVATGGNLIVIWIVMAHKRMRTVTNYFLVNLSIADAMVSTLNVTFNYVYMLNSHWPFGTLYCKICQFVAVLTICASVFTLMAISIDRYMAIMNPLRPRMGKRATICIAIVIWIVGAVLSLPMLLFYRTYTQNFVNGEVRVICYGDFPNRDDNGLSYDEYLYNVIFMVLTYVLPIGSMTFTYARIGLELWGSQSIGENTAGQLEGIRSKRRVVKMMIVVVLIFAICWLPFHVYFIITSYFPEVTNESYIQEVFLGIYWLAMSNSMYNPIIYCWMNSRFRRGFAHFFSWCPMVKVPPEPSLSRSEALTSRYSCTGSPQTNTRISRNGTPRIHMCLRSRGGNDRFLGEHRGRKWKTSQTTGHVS
Excerpt: as §1, §2, §3

[4] = tested on: pea aphid Acyrthosiphon pisum; conditions: by feeding; cited from earlier work
[5] = tested on: cockroach TRP myotropic bioassay; conditions: cited from earlier work
[6] = expanded ligand test, 1 and 0.1 μM

Substance | Agonistic activity, VdNTL-R 0.1μM [1] [RLU] | Agonistic activity, VdNTL-R 1μM [1] [RLU] | Agonistic activity, VdTRP-R 0.1μM [2] [RLU] | Agonistic activity, VdTRP-R 1μM [2] [RLU] | EC50 [3] [nM] | Agonistic activity, AmTRP-R 0.01μM [3] [RLU] | Agonistic activity, AmTRP-R 1μM [3] [RLU] | EC50 [2] [nM] | also measured
SIGGPAPGFVGAR-NH2 [VdNTL1] | 96.2 | 100 | 1.3 | 18.6 | 4.5 | 60.2 | 98.4 |  | EC50 [1]: 26 nM; Difference in activity on AmTRP-R between VdNTL1 and VdNTL2 ([3]; VdNTL1 compared with VdNTL2): approximately 6 ×
AAPFHAMR-NH2 [VdTRP2] |  |  |  |  | 95 |  |  | 71 | 
ASGQEEFGPFWANRa [TcNTL1, NTL peptide of T. castaneum] | 1 | 1.5 | 2.2 | 60.7 |  | 4.6 | -0.2 |  | Receptor specificity among VdNTL-R, VdTRP-R and AmTRP-R (in words) [2]: specifically activated only VdTRP-R
pQA[Aib]SGFL[Aib]VRamide [compound 1888] | -0.4 | 1.9 | 0.3 | 1 |  | -0.4 | 62.9 |  | Agonistic activity on VdNTL-R (in words) [1, 6]: failing to show agonistic activity; Oral aphicidal activity [4]: potent oral aphicidal activity; Agonistic activity on VdTRP-R (in words) [2, 6]: failing to show agonistic activity; Agonistic activity on AmTRP-R (in words) [3]: some activity; Activity in a cockroach TRP myotropic bioassay [5]: highly potent activity
DLRQENDPFWGNR-NH2 [BmNTL3, NTL peptide of B. mori] | 0.4 | 0.1 | 30.7 | 83.4 |  | 4.7 | -0.8 |  | Receptor specificity among VdNTL-R, VdTRP-R and AmTRP-R (in words) [2]: specifically activated only VdTRP-R
GSFFGMR-NH2 [VdTRP3, GSFFGMRa] |  | 24.8 | 107.6 | 100 | 13 | 58 | 96.3 | 4.3 | 
LQLRDLYNADDPFVPNRa [DmNTL5, NTL peptide of D. melanogaster] | 0.2 | 0.1 | 0.7 | 3.1 |  | 6.5 | -1.2 |  | 
GGVPGFVGAR-NH2 [VdNTL2] |  |  |  |  | 0.7 |  |  |  | EC50 [1]: 37 nM; Agonistic activity on AmTRP-R (in words) [3]: equally potent as the AmTRPs
ALMGFQGVR-NH2 [AmTRP1] |  | 37.1 | 2.5 | 34.9 | 0.3 | 69 | 100 |  | 
TEENPFWANR-NH2 [BmNTL5, NTL peptide of B. mori] | 0.3 | 0.4 | 7.3 | 61.2 |  | 6 | -0.2 |  | Receptor specificity among VdNTL-R, VdTRP-R and AmTRP-R (in words) [2]: specifically activated only VdTRP-R
NPRWEFRGKFVGVR-NH2 [AmTRP7] |  |  |  |  | 0.8 |  |  | 93 | Lower sensitivity of VdTRP-R relative to VdTRP3 ([2]; fold lower sensitivity versus VdTRP3): > 10 ×
HRNLFQVDDPFFATRa [DmNTL4, NTL peptide of D. melanogaster] | 0.8 | 30.4 | 10.3 | 70.9 |  | 9.5 | 79.7 |  | 
APMGFQGMR-NH2 [AmTRP2,3] |  |  |  |  |  |  |  | 250 | 
AFHAMR-NH2 [VdTRP1] |  |  |  |  | 95 |  |  | 55 | 
